Results: US20240425529A1, “BORIC ACID DERIVATIVE” (SHOUYAO HOLDINGS (BEIJING) CO., LTD., priority 2021, published 2024)
pIC50: −log10 of the molar value.

Tests used:
LMP7 [1] = target: T1, LMP7 (Homo sapiens, UniProt P28062); assay: Cytological inhibitory activity on LMP7 in MOLT-4 cells; format: cell-based; conditions: incubation for 2 hours with compound, read-out: Cytological activity data LMP7 Activity (MOLT-4Cell)
T1 construct: using MOLT-4 cell lysate as the enzyme source of LMP7; endogenous in cells; host or cells: MOLT-4 (human acute lymphoblastic leukemia cells)
Procedure: MOLT-4 are human acute lymphoblastic leukemia cells and have been identified as cells with high expression of LMP7. In this experiment, the compounds were pre-incubated with MOLT-4, and Ac-ANW-AMC (BonstonBiochem, Cat #S-320) was used as the substrate of LMP7 to establish the detection method for the enzymatic activity of LMP7 in cells and detect the compound inhibitory activity (half inhibitory concentration, IC50).
Cells were plated in a 24-well plate (Corning) at a concentration of 1.5×10^5/ml per well. The next day compounds were prepared and diluted in a 5-fold gradient from 2 mM in 100% DMSO for a total of 8 concentrations. 2 μl for each concentration of the compound was added to a 1-ml cell culture medium, supplemented with 1 ml of RPMI-1640 only (final FBS concentration 5%, v/v). The compounds were mixed with the cells. After incubation for 2 hours in the incubator, the cells were centrifuged at 2000 rpm for 8 minutes to discard the supernatant. The cells were washed once with 2 ml PBS (Solarbio), and centrifuged again to discard the supernatant. The cells were resuspended in 100 μl of lysis buffer (20 mM Tris, pH 8.0, 5 mM EDTA, plus Protease inhibitor (1: 100) and Phosphatase Inhibitor (1:100) when used) and left in a 4° C. refrigerator for 45 minutes.
After 2 min. of centrifuge at 2000 rpm, the lysate was transferred from the 24-well plate to a 96-well plate, and centrifuged at 2000 rpm, 4° C., for 15 min. The supernatant was the lysate. Protein quantification was performed using the BCA method (Thermo, #23225). A 2* lysate was prepared with the reaction buffer (20 mM Tris, pH 8.0, 0.5 mM EDTA) at a final concentration of 20 ng/μl. 2* Ac-ANW-AMC was prepared with the reaction buffer at a final concentration of 100 μM. 10 µl of 2* lysate was added to a 384-well plate (OptiPlate-384, purchased from PerkinElmer), and added with 10 W of 2* Ac-ANW-AMC. The reaction was started by centrifugation at 23° C. in the dark for 1 hour. After completion of the reaction, the signal value (excitation wavelength 345 nm/emission wavelength 445 nm) was read on the CLARIO starPlus (purchased from BMG LRBTECH). Enzyme activity was determined at 8 concentrations for each compound, and data were processed using the GraphPad Prism software to calculate the half inhibitory concentration of the compound on LMP7 hydrolase in MOLT-4 cells, i.e. the IC50 value.

β5 = target: T2, β5 (Homo sapiens, UniProt P28074); assay: Enzymatic inhibitory activity on β5 (HEK-293 cell lysate, Ac-WLA-AMC substrate); format: biochemical; conditions: 1 hour pre-incubation
T2 construct: using HEK-293 cell lysate as the enzyme source of D5; endogenous in cells; host or cells: HEK-293 (human embryonic kidney cells)
Description: β5 is a catalytic subunit of immunoproteasomes. In this experiment, an enzymatic detection platform was established using its hydrolytic enzyme activity and used for compound activity detection. Using Ac-WLA-AMC (Bonston Biochem, Cat #5-330) as a substrate for D5, the amount of fluorescent group AMC (7-amino-4-methylcoumarin) released after hydrolysis can reflect the enzymatic activity. […] We established an enzymatic detection method for compound inhibition on D5 using HEK-293 cell lysate as the enzyme source of D5 and detected the compound inhibitory activity (half inhibitory concentration, IC50). The enzymatic inhibitory activity of compounds against D5 was used as a measure index of compound selectivity.
(§1) HEK-293 cells were cultured in a 75 cm^2 cell culture flask (Corning) (37° C., 95% air, and 5% CO2) with DMEM (Biological Industries) medium containing 10% fetal bovine serum (Biological Industries) and 1% Pen Strep (Gibco) and passaged 2-3 times one week. 1×10^7 HEK-293 cells were collected, resuspended in 1 ml of PBS (Solarbio), and centrifuged at 3000 rpm for 5 minutes. The supernatant was aspirated off. The cells were resuspended in 500 μl of lysis buffer (20 mM Tris, pH 8.0, 5 mM EDTA, plus Protease inhibitor (1:1000) and Phosphatase Inhibitor (1:100) when used) and left on ice for 30 minutes. The cells were broken by supersonic technique, 0.5 S on, 0.5 S off, for 2.5 S. The centrifuge was performed at 12000 rpm, 4° C. for 10 minutes. The supernatant was the cell lysate and protein quantification was performed using the BCA method (Thermo, #23225).
Compounds were diluted in a 5-fold gradient with 100% DMSO for a total of 9 concentrations. 2 W for each concentration was added to a 48-μl reaction buffer (20 mM Tris, pH 8.0, 0.5 mM EDTA) and mixed well as 4* compound (final concentrations: 100000, 20000, 4000, 800, 160, 32, 6.4, 1.28, and 0 nM) for later use. A reaction buffer was used to prepare 4*HEK-293 cell lysate at a final concentration of 25 ng/μl and 2*Ac-WLA-AMC at a final concentration of 20 μM. 5 W of 4* compound was added to a 384-well plate (OptiPlate-384, purchased from PerkinElmer), added with 5 W of 4*HEK-293 cell lysate, centrifuged, and reacted in an incubator at 23° C. for 1 hour. 10 W of 2* Ac-WLA-AMC was added and the reaction was started by centrifugation at 23° C. in the dark for 2 hours. After completion of the reaction, the signal value (excitation wavelength 345 nm/emission wavelength 445 nm) was read on the CLARIO star^Plus (purchased from BMG LRBTECH). Enzyme activity was determined at 9 concentrations for each compound, and data were processed using the GraphPad Prism software to calculate the half inhibitory concentration of the compound on D5, i.e. the IC50 value.

LMP7 [2] = target: T1, LMP7; assay: Enzymatic inhibitory activity on LMP7 (MOLT-4 cell lysate, Ac-ANW-AMC substrate); format: biochemical; conditions: 1 hour pre-incubation
Description: LMP7 is a catalytic subunit of immunoproteasomes. In this experiment, an enzymatic detection platform was established using its hydrolytic enzyme activity and used for compound activity detection. Using Ac-ANW-AMC (Bonston Biochem, Cat #S-320) as a substrate for LMP7, the amount of fluorescent group AMC (7-amino-4-methylcoumarin) released after hydrolysis can reflect the enzymatic activity. MOLT-4 cells are human acute lymphoblastic leukemia cells and have been identified as cells with high expression of LMP7. We established an enzymatic detection method for compound inhibition on LMP7 using MOLT-4 cell lysate as the enzyme source of LMP7 and detected the compound inhibitory activity (half inhibitory concentration, IC50).
as §1, with “MOLT-4 cells were” for “HEK-293 cells were”, “CO2) with RPMI-1640 (Biological Industries)” for “CO2) with DMEM (Biological Industries)”, “week. 1×10^7 MOLT-4 cells were” for “week. 1×10^7 HEK-293 cells were”, “was performed by using the” for “was performed using the”
Compounds were diluted in a 5-fold gradient with 100% DMSO for a total of 9 concentrations: 2 W for each concentration was added to a 48-μl reaction buffer (20 mM Tris, pH 8.0, 0.5 mM EDTA) and mixed well as 4* compound (final concentrations: 2000, 400, 80, 16, 3.2, 0.64, 0.128, 0.0256, and 0 nM) for later use. A reaction buffer was used to prepare 4* MOLT-4 cell lysate at a final concentration of 20 ng/μl and 2*Ac-ANW-AMC at a final concentration of 100 µM. 5 μl of 4* compound was added to a 384-well plate (OptiPlate-384, purchased from PerkinElmer), added with 5 W of 4* cell lysate, centrifuged, and reacted in an incubator at 23° C. for 1 hour. 10 W of 2* Ac-ANW-AMC was added and the reaction was started by centrifugation at 23° C. in the dark for 2 hours. After completion of the reaction, the signal value (excitation wavelength 345 nm/emission wavelength 445 nm) was read on the CLARIO star^Plus (purchased from BMG LRBTECH). Enzyme activity was determined at 9 concentrations for each compound, and data were processed using the GraphPad Prism software to calculate the half inhibitory concentration of the compound on LMP7, i.e. the IC50 value.

pIC50 (LMP7 [1])	pIC50 (β5)	pIC50 (LMP7 [2])	SMILES
8.23	6.81	8.12	O=C(N[C@@H](Cc1coc2ccccc12)B(O)O)C(=O)N[C@@H]1C[C@H]2CC[C@@H]1O2 [Ex. 1, ((R)-1-(2-(((1S,2R,4R)-7-oxabicyclo[2.2.1]heptan-2-yl)amino)-2-oxoacetamido)-2-(benzofuran-3-yl)ethyl)boronic acid]
		7.57	CNC(=O)C(=O)N[C@@H](Cc1coc2ccccc12)B(O)O [Ex. 2, (R)-(2-(benzofuran-3-yl)-1-(2-(methylamino)-2-oxoacetamido)ethyl)boronic acid]
	6.29	7.89	CON(C)C(=O)C(=O)N[C@@H](Cc1coc2ccccc12)B(O)O [Ex. 3, (R)-(2-(benzofuran-3-yl)-1-(2-(methoxy(methyl)amino)-2-oxoacetamido)ethyl) boronic acid]
		7.65	CCN(CC)C(=O)C(=O)N[C@@H](Cc1coc2ccccc12)B(O)O [Ex. 4, (R)-(2-(benzofuran-3-yl)-1-(2-(diethylamino)-2-oxoacetamido)ethyl)boronic acid]
		7.55	CN(C)C(=O)C(=O)N[C@@H](Cc1coc2ccccc12)B(O)O [Ex. 6, (R)-(2-(benzofuran-3-yl)-1-(2-(dimethylamino)-2-oxoacetamido)ethyl)boronic acid]
	6.91	8.11	O=C(N[C@H]1CCOC1)C(=O)N[C@@H](Cc1coc2ccccc12)B(O)O [Ex. 7, ((R)-2-(benzofuran-3-yl)-1-(2-oxo-2(((S)-tetrahydrofuran-3-yl)amino)acetamido)ethyl) boronic acid]
		7.61	C[C@@H](NC(=O)C(=O)N[C@@H](Cc1coc2ccccc12)B(O)O)c1ccccn1 [Ex. 8, ((R)-2-(benzofuran-3-yl)-1-(2-oxo-2-(((R)-1-(pyridin-2-yl)ethyl)amino)acetamido)ethyl)boronic acid]
	6.91	8.14	O=C(NC1CCOCC1)C(=O)N[C@@H](Cc1coc2ccccc12)B(O)O [Ex. 11, (R)-(2-(benzofuran-3-yl)-1-(2-oxo-2-((tetrahydro-2H-pyran-4-yl)amino)acetamido)ethyl)boronic acid]
8.39	7.23	8.50	O=C(Nc1nccs1)C(=O)N[C@@H](Cc1coc2ccccc12)B(O)O [Ex. 13, (R)-(2-(benzofuran-3-yl)-1-(2-oxo-2-(thiazol-2-ylamino)acetamido)ethyl) boronic acid]
	7.23	7.48	O=C1CC[C@H](N2C(=O)c3ccc(N4CCN(CC5CCN(C(=O)C(=O)N[C@@H](Cc6coc7ccccc67)B(O)O)CC5)CC4)cc3C2=O)C(=O)N1 [Ex. 16, ((R)-2-(benzofuran-3-yl)-1-(2-(4-((4-(2-((S)-2,6-dioxopiperidin-3-yl)-1,3-dioxoisoindolin-5-yl)piperazin-1-yl)methyl)piperidin-1-yl)-2-oxoacetamido)ethyl)boronic acid]
9.10	7.52	8.59	CC1(C)[C@@H]2C[C@H]3OB([C@H](Cc4coc5ccccc45)NC(=O)C(=O)Nc4cnccn4)O[C@@]3(C)[C@H]1C2 [Ex. 17, (R)-(2-(benzofuran-3-yl)-1-(2-oxo-2-(pyrazin-2-ylamino)acetamido)ethyl) boronic acid (1S,2S,3R,5S)-(+)-pinane-2,3-diol ester]
8.90	7.47	8.62	O=C(O)CC1(CC(=O)O)OB([C@H](Cc2coc3ccccc23)NC(=O)C(=O)Nc2cnccn2)OC1=O [Ex. 18, (R)-2,2′-(2-(2-(benzofuran-3-yl)-1-(2-oxo-2-(pyrazin-2-ylamino)acetamido)ethyl)-5-oxo-1,3,2-dioxaborolane-4,4-diyl)diacetic acid]
9.16	7.91	8.95	CC1(C)OB([C@H](Cc2coc3ccccc23)NC(=O)C(=O)Nc2cnccn2)OC1(C)C [Ex. 19, N-((1R)-2-(1-benzofuran-3-yl)-1-(tetramethyl-1,3,2-dioxaborolan-2-yl)ethyl)-N-(pyrazin-2-yl)oxalamide]
